These results are taken from patent US5672358A (priority 1995, dated 1997).

Entries after “also recorded” stand apart in the source; their conditions may differ.

The data set can be described thus: pH dependent solubility of drug or wax.

`COc1cc(Cc2cnc(N)nc2N)cc(OC)c1OC` [trimethoprim]: the “solubility” value is “more soluble at acidic pH values; also recorded: the solubility of the two drugs is pH dependent”.
